Data from ChEMBL document CHEMBL3885861, “Open TG-GATES”.

Organism: Rattus norvegicus
Test: Open TG-GATES - Regimen: Daily Repeat
Type: toxicity, organism-based, Sprague-Dawley
Parameters: regimen Daily Repeat, gender Male, age 6 weeks
Conditions: in vivo, sc, route subcutaneous injection; for APTT / Bas / Eos / Fbg / Hb / Ht / Lym / MCH / MCHC / MCV / Mono / Neu / PT / Plat / RBC / Ret / WBC: tissue Blood; for KIDNEY_L / KIDNEY_R / KIDNEY_TOTAL: tissue Kidney; for LIVER: tissue Liver; for A/G / ALP / ALT / AST / BUN / CRE / Ca / Cl / DBIL / GLC / IP / K / LDH / Na / PL / RALB / TBIL / TC / TG / TP / gamma-GTP: tissue Plasma
[1] = 0 mg/kg, 72 h, dose 0 ug/Kg, dose level Control, time 3 day
[2] = 0 mg/kg, […], dose 0 ug/Kg, dose level Control, time 7 day
[3] = 0 mg/kg, […], dose 0 ug/Kg, dose level Control, time 14 day
[4] = 0 mg/kg, […], dose 0 ug/Kg, dose level Control, time 28 day
[5] = 0.002 mg/kg, 72 h, dose 2 ug/Kg, dose level Low, time 3 day
[6] = 0.002 mg/kg, […], dose 2 ug/Kg, dose level Low, time 7 day
[7] = 0.002 mg/kg, […], dose 2 ug/Kg, dose level Low, time 14 day
[8] = 0.002 mg/kg, […], dose 2 ug/Kg, dose level Low, time 28 day

## CC(=O)O.N=C(N)NCCC[C@@H](NC(=O)[C@@H]1CCCN1C(=O)[C@@H]1CSSCCC(=O)N[C@@H](Cc2ccc(O)cc2)C(=O)N[C@@H](Cc2ccccc2)C(=O)N[C@@H](CCC(N)=O)C(=O)N[C@@H](CC(N)=O)C(=O)N1)C(=O)NCC(N)=O [DESMOPRESSIN ACETATE]
[1]
  TERMINAL_BW: 251.2 g
  APTT: 16.5 s
  Bas: 0%
  Eos: 1%
  Fbg: 269.4 mg/dL
  Hb: 13.2 g/dL
  Ht: 40.3%
  Lym: 66.8%
  MCH: 21.5 pg
  MCHC: 32.7%
  MCV: 65.7 fL
  Mono: 9.6%
  Neu: 22.4%
  PT: 11.9 s
  Plat: 133.8 x10_4/uL
  RBC: 613.4 x10_4/ul
  Ret: 6.9%
  WBC: 105.2 x10_2/uL
  KIDNEY_L: 1 g
  KIDNEY_R: 1.1 g
  KIDNEY_TOTAL: 2.1 g
  LIVER: 11.8 g
  A/G: 2
  ALP: 1258.4 IU/L
  ALT: 32.6 IU/L
  AST: 68.8 IU/L
  BUN: 15.6 mg/dL
  CRE: 0.4 mg/dL
  Ca: 11.2 mg/dL
  Cl: 104.6 meq/L
  DBIL: 0.01 mg/dL
  GLC: 185.6 mg/dL
  IP: 7.3 mg/dL
  K: 5.4 meq/L
  LDH: 203 IU/L
  Na: 136 meq/L
  PL: 152.2 mg/dL
  RALB: 3.7 g/dL
  TBIL: 0.034 mg/dL
  TC: 79.8 mg/dL
  TG: 119.6 mg/dL
  TP: 5.6 g/dL
  gamma-GTP: 1 IU/L
[2]
  TERMINAL_BW: 275.2 g
  APTT: 16.5 s
  Bas: 0%
  Eos: 1%
  Fbg: 262.8 mg/dL
  Hb: 13.6 g/dL
  Ht: 41.6%
  Lym: 68.2%
  MCH: 21 pg
  MCHC: 32.8%
  MCV: 64.2 fL
  Mono: 7.4%
  Neu: 23.4%
  PT: 12 s
  Plat: 124.2 x10_4/uL
  RBC: 648.6 x10_4/ul
  Ret: 6.6%
  WBC: 103.6 x10_2/uL
  KIDNEY_L: 1.1 g
  KIDNEY_R: 1.1 g
  KIDNEY_TOTAL: 2.2 g
  LIVER: 12.4 g
  A/G: 1.9
  ALP: 1187.4 IU/L
  ALT: 30.2 IU/L
  AST: 68.8 IU/L
  BUN: 16.2 mg/dL
  CRE: 0.4 mg/dL
  Ca: 13.7 mg/dL
  Cl: 99.2 meq/L
  DBIL: 0.014 mg/dL
  GLC: 197.2 mg/dL
  IP: 7.4 mg/dL
  K: 5.1 meq/L
  LDH: 157.8 IU/L
  Na: 130.2 meq/L
  PL: 165 mg/dL
  RALB: 3.6 g/dL
  TBIL: 0.048 mg/dL
  TC: 86.8 mg/dL
  TG: 171 mg/dL
  TP: 5.5 g/dL
  gamma-GTP: 1 IU/L
[3]
  TERMINAL_BW: 338.4 g
  APTT: 15.5 s
  Bas: 0%
  Eos: 1%
  Fbg: 263.4 mg/dL
  Hb: 14.2 g/dL
  Ht: 43.5%
  Lym: 74.8%
  MCH: 20.7 pg
  MCHC: 32.6%
  MCV: 63.2 fL
  Mono: 7.8%
  Neu: 16.8%
  PT: 11.7 s
  Plat: 130.6 x10_4/uL
  RBC: 687 x10_4/ul
  Ret: 6%
  WBC: 122.6 x10_2/uL
  KIDNEY_L: 1.3 g
  KIDNEY_R: 1.3 g
  KIDNEY_TOTAL: 2.6 g
  LIVER: 14.3 g
  A/G: 1.7
  ALP: 1208.4 IU/L
  ALT: 31 IU/L
  AST: 67.8 IU/L
  BUN: 16.2 mg/dL
  CRE: 0.4 mg/dL
  Ca: 11.1 mg/dL
  Cl: 106.2 meq/L
  DBIL: 0.01 mg/dL
  GLC: 194.2 mg/dL
  IP: 6.9 mg/dL
  K: 5.2 meq/L
  LDH: 149 IU/L
  Na: 138.6 meq/L
  PL: 166 mg/dL
  RALB: 3.8 g/dL
  TBIL: 0.026 mg/dL
  TC: 91.4 mg/dL
  TG: 136.8 mg/dL
  TP: 6 g/dL
  gamma-GTP: 0.8 IU/L
[4]
  TERMINAL_BW: 413.7 g
  APTT: 17.8 s
  Bas: 0%
  Eos: 1.6%
  Fbg: 249.4 mg/dL
  Hb: 15.2 g/dL
  Ht: 46.3%
  Lym: 77.4%
  MCH: 19 pg
  MCHC: 32.8%
  MCV: 58.1 fL
  Mono: 6.6%
  Neu: 14.8%
  PT: 12.3 s
  Plat: 113 x10_4/uL
  RBC: 797.2 x10_4/ul
  Ret: 3.1%
  WBC: 130.4 x10_2/uL
  KIDNEY_L: 1.5 g
  KIDNEY_R: 1.5 g
  KIDNEY_TOTAL: 2.9 g
  LIVER: 15.3 g
  A/G: 1.5
  ALP: 865.8 IU/L
  ALT: 27.8 IU/L
  AST: 67.6 IU/L
  BUN: 14.6 mg/dL
  CRE: 0.4 mg/dL
  Ca: 8.9 mg/dL
  Cl: 106 meq/L
  DBIL: 0.01 mg/dL
  GLC: 184.8 mg/dL
  IP: 6.2 mg/dL
  K: 4.9 meq/L
  LDH: 154.2 IU/L
  Na: 139.2 meq/L
  PL: 126.4 mg/dL
  RALB: 3.6 g/dL
  TBIL: 0.038 mg/dL
  TC: 63.6 mg/dL
  TG: 120.6 mg/dL
  TP: 6 g/dL
  gamma-GTP: 0.6 IU/L
[5]
  TERMINAL_BW: 236.2 g
  APTT: 16.3 s
  Bas: 0%
  Eos: 1.2%
  Fbg: 261.2 mg/dL
  Hb: 13.3 g/dL
  Ht: 41%
  Lym: 72%
  MCH: 21.1 pg
  MCHC: 32.4%
  MCV: 65.2 fL
  Mono: 8.6%
  Neu: 18.2%
  PT: 12.2 s
  Plat: 133.6 x10_4/uL
  RBC: 630 x10_4/ul
  Ret: 8.4%
  WBC: 92.6 x10_2/uL
  KIDNEY_L: 1 g
  KIDNEY_R: 1 g
  KIDNEY_TOTAL: 2.1 g
  LIVER: 10.6 g
  A/G: 2
  ALP: 1631.2 IU/L
  ALT: 37 IU/L
  AST: 69.2 IU/L
  BUN: 15 mg/dL
  CRE: 0.4 mg/dL
  Ca: 11.2 mg/dL
  Cl: 104.8 meq/L
  DBIL: 0.01 mg/dL
  GLC: 199 mg/dL
  IP: 7.1 mg/dL
  K: 5.1 meq/L
  LDH: 180.4 IU/L
  Na: 136.8 meq/L
  PL: 146.4 mg/dL
  RALB: 3.7 g/dL
  TBIL: 0.034 mg/dL
  TC: 79.2 mg/dL
  TG: 95.2 mg/dL
  TP: 5.6 g/dL
  gamma-GTP: 1 IU/L
[6]
  TERMINAL_BW: 262 g
  APTT: 16.7 s
  Bas: 0%
  Eos: 1%
  Fbg: 265.2 mg/dL
  Hb: 13.9 g/dL
  Ht: 42.7%
  Lym: 70%
  MCH: 21.2 pg
  MCHC: 32.5%
  MCV: 65.2 fL
  Mono: 9.4%
  Neu: 19.8%
  PT: 12.1 s
  Plat: 106 x10_4/uL
  RBC: 655.8 x10_4/ul
  Ret: 6.9%
  WBC: 101 x10_2/uL
  KIDNEY_L: 1.2 g
  KIDNEY_R: 1.2 g
  KIDNEY_TOTAL: 2.4 g
  LIVER: 11.7 g
  A/G: 1.9
  ALP: 1102.8 IU/L
  ALT: 32.8 IU/L
  AST: 69.6 IU/L
  BUN: 17.8 mg/dL
  CRE: 0.4 mg/dL
  Ca: 13.6 mg/dL
  Cl: 99.4 meq/L
  DBIL: 0.012 mg/dL
  GLC: 198.6 mg/dL
  IP: 8.2 mg/dL
  K: 4.8 meq/L
  LDH: 155.6 IU/L
  Na: 130.6 meq/L
  PL: 132.2 mg/dL
  RALB: 3.7 g/dL
  TBIL: 0.044 mg/dL
  TC: 68.6 mg/dL
  TG: 99.4 mg/dL
  TP: 5.7 g/dL
  gamma-GTP: 1 IU/L
[7]
  TERMINAL_BW: 330.1 g
  APTT: 16.6 s
  Bas: 0%
  Eos: 1%
  Fbg: 253.8 mg/dL
  Hb: 14 g/dL
  Ht: 42.8%
  Lym: 75%
  MCH: 20.2 pg
  MCHC: 32.8%
  MCV: 61.5 fL
  Mono: 8.6%
  Neu: 15.2%
  PT: 12.1 s
  Plat: 134.8 x10_4/uL
  RBC: 696.6 x10_4/ul
  Ret: 5.6%
  WBC: 119.2 x10_2/uL
  KIDNEY_L: 1.4 g
  KIDNEY_R: 1.4 g
  KIDNEY_TOTAL: 2.7 g
  LIVER: 14 g
  A/G: 1.8
  ALP: 1109.8 IU/L
  ALT: 33.8 IU/L
  AST: 70 IU/L
  BUN: 16.6 mg/dL
  CRE: 0.4 mg/dL
  Ca: 10.8 mg/dL
  Cl: 106.2 meq/L
  DBIL: 0.01 mg/dL
  GLC: 183.8 mg/dL
  IP: 6.9 mg/dL
  K: 5.3 meq/L
  LDH: 146.8 IU/L
  Na: 138.4 meq/L
  PL: 135.6 mg/dL
  RALB: 3.6 g/dL
  TBIL: 0.028 mg/dL
  TC: 66.6 mg/dL
  TG: 111.2 mg/dL
  TP: 5.7 g/dL
  gamma-GTP: 1 IU/L
[8]
  TERMINAL_BW: 414.7 g
  APTT: 17.5 s
  Bas: 0%
  Eos: 1.2%
  Fbg: 251.8 mg/dL
  Hb: 15.1 g/dL
  Ht: 46%
  Lym: 76.2%
  MCH: 19.4 pg
  MCHC: 32.8%
  MCV: 59.4 fL
  Mono: 7.2%
  Neu: 15.8%
  PT: 12 s
  Plat: 117.6 x10_4/uL
  RBC: 774.6 x10_4/ul
  Ret: 4.2%
  WBC: 132 x10_2/uL
  KIDNEY_L: 1.5 g
  KIDNEY_R: 1.5 g
  KIDNEY_TOTAL: 3 g
  LIVER: 16.3 g
  A/G: 1.5
  ALP: 926.6 IU/L
  ALT: 27.8 IU/L
  AST: 62.6 IU/L
  BUN: 16.6 mg/dL
  CRE: 0.4 mg/dL
  Ca: 9.3 mg/dL
  Cl: 105 meq/L
  DBIL: 0.012 mg/dL
  GLC: 193 mg/dL
  IP: 6.4 mg/dL
  K: 4.9 meq/L
  LDH: 168 IU/L
  Na: 139.4 meq/L
  PL: 142 mg/dL
  RALB: 3.8 g/dL
  TBIL: 0.046 mg/dL
  TC: 71.8 mg/dL
  TG: 158.2 mg/dL
  TP: 6.3 g/dL
  gamma-GTP: 0.6 IU/L
